# Test results reported in publication PMC5306062, “Pharmacology and toxicology of the novel investigational agent Cantrixil (TRX-E-002-1)” (Cancer Chemotherapy and Pharmacology, 2016).
# Like-named read-outs stand apart in the source and are kept apart here.
# Key:
# [1] = tested on: recurrent ovarian cancer model; assay: Recurrent ovarian cancer model after paclitaxel (OCSC2-inoculated mice); format: in vivo
# Experimental: In vivo, TRX-E-002-1, formulated in 20% SBECD, was active in a disseminated ovarian cancer model and a recurrent ovarian cancer model in which tumour recurrence is investigated following initial treatment of the OCSC2-inoculated mice with paclitaxel. In both models, TRX-E-002-1 inhibited tumour growth following once daily intraperitoneal administration.
# In the recurrent ovarian cancer model, once daily intraperitoneal administration of 100 mg/kg TRX-E-002-1 in 20% SBECD for 4 weeks inhibited tumour growth and reduced terminal tumour burden by 77%.
# [2] = tested on: human Panc-1 pancreatic tumour cells implanted orthotopically; assay: Orthotopic model of pancreatic cancer; format: in vivo, female NOD-SCID mice; conditions: 100 mg/kg i.p. once daily in 20% SBECD, 18 consecutive days; p < 0.001
# Experimental: Fig. 3 Efficacy of TRX-E-002-1 in an orthotopic model of pancreatic cancer. Female NOD-SCID mice were inoculated directly into the pancreas with PANC-1 human pancreatic epithelioid adenocarcinoma cells transfected with luciferase gene. Tumours were allowed to establish prior to treatment initiation. Animals were dosed with TRX-E-002-1 100 mg/kg i.p. for 18 consecutive days over which time tumour growth was monitored using bioluminescent imaging. Following euthanasia at the predetermined end-point, tumours were excised and weighed. Final tumour (plus pancreas) weights excised at the terminal time point. *p < 0.001
# [3] = Rat pharmacokinetics after single intraperitoneal injection of 100 mg/kg; format: in vivo, Sprague–Dawley rats; conditions: for AUC(0-inf) / Tmax / half-life: Sprague-Dawley, rat, ip, plasma
# Experimental: The pharmacokinetics of TRX-E-002-1 was evaluated in male female Sprague–Dawley rats following a single intraperitoneal injection of 100 mg/kg TRX-E-002-1 in 20% SBECD vehicle. Absorption was rapid, with C max mean plasma concentrations reached 0.25/1 h after dosing in female/male rats. […] Mean plasma levels decreased to below the limit of quantification by 24 h (not shown). The AUC0−∞ value was 29,537 and 44,702 ng h/mL in female and male rats, respectively (Table 2). High tissue levels were observed 0.5–6 h after dosing, with levels higher than the plasma concentration in pancreas, ovaries, large intestine, skin, kidneys, liver, stomach and adrenal glands (not shown). Treatment of plasma and tissue samples with glucuronidase indicated the presence of low levels of a glucuronide conjugate of TRX-E-002-1 (not shown). Other metabolic pathways have not yet been investigated. […] Parent drug was excreted in the urine and faeces, and high levels of the glucuronide metabolite were found in the faeces.
# Tissue concentrations of total drug (parent + glucuronide) were also similar to those in plasma except in liver, where they were 2–3 times higher.
# [4] = Dog GLP 28-day repeat-dose study, intraperitoneal three times per week; format: in vivo, beagle dogs
# Experimental: For the dog GLP 28-day repeat-dose study, beagle dogs received intraperitoneal injections of vehicle (3:20 dilution of 20% SBECD in 0.9% saline) or Cantrixil (1, 10 or 30 mg/kg) three times per week for 4 weeks via an implanted catheter. Blood samples were collected from all dogs at 0.25, 0.5, 1, 2, 4 and 24 h after dosing on Days 1 and 26. […] Mean C max and AUClast values were similar in males and females and were greater than proportional to dose. […] Corresponding mean AUClast values on Day 1 were 71.4/80.5, 2810/2260 and 10,500/11,000 ng h/mL, respectively, for males/females.
# Treatment-related clinical signs observed in males and females at 10 or 30 mg/kg included emesis, and soft or liquid faeces. […] Food consumption was affected to a lesser extent in females at 30 mg/kg and was not associated with discernible effect on body weight gain.
# Similar changes were apparent but less severe in high-dose males and females after the 2-week recovery period. Coagulation parameters, serum chemistry, urinalysis and bone marrow examinations were unremarkable.
# Red discoloration in the caecum was also observed in all male dogs and one female dog in the 30 mg/kg group. […] No treatment-related macroscopic abnormalities were observed after the recovery period.
# In summary, the main toxicity findings following intraperitoneal administration of TRX-E-002-1 30 mg/kg in SBECD to beagle dogs three times per week for 4 weeks were emesis, soft and/or liquid faeces, leukocytosis with elevated neutrophil and monocyte counts, red discoloration in the caecum and degenerative changes in male reproductive organs. Some of these effects were also observed at the mid-dose of 10 mg/kg, while 1 mg/kg was a clear no-effect dose. […] No differences between sexes were apparent in toxic effects or systemic exposure, and the NOAEL for combined sexes was 10 mg/kg. The 10 mg/kg dose was also considered the highest non-severely toxic dose (HNSTD), and mean plasma AUClast for combined sexes at this dose was 2310 ng h/mL on Day 26.
# [5] = tested on: Escherichia coli strain WP2uvrA; assay: Bacterial reverse mutation test, plate assay; format: cell-based; conditions: absence or presence of S9 mix
# Experimental: (§1) The assays were performed in compliance with GLP regulations.
# (§2) The bacterial reverse mutation test employed Salmonella typhimurium strains TA1535, TA1537, TA98 and TA100, and Escherichia coli strain WP2uvrA in a conventional plate assay, with and without exogenous metabolic activation by a rat liver post-mitochondrial fraction (S9 mix).
# [6] = tested on: Salmonella typhimurium strains TA1535, TA1537, TA98 and TA100; assay: Bacterial reverse mutation test, plate assay; format: cell-based; conditions: absence or presence of S9 mix
# Experimental: as §1, §2
# [7] = tested on: mouse lymphoma L5178Y cells; assay: In vitro mammalian cell mutation assay, thymidine kinase locus; conditions: 3 h with and without S9, 24 h without S9
# Experimental: Genotoxicity testing of TRX-E-002-1 was performed in an ICH-compliant test battery (see ICH Guideline S2A), comprising an in vitro bacterial reverse mutation test, an in vitro mammalian cell mutation assay and an in vivo rodent bone marrow micronucleus assay. The assays were performed in compliance with GLP regulations.
# The in vitro mammalian cell mutation assay utilised the forward mutation system at the thymidine kinase locus of the mouse lymphoma L5178Y cells using a microtitre cloning technique. TRX-E-002-1 was tested in three experimental conditions: 3-h incubation at 37 °C with and without metabolic activation system (Aroclor-induced rat liver S9 mix), and a 24-h incubation without metabolic activation (i.e. continuous treatment).
# [8] = 100 mg/kg i.p. once daily in 20% SBECD for 4 weeks
smiles,measurement,setting,value
"COc1cc([C@@H]2COc3c(ccc(O)c3C)[C@@H]2c2ccc(O)cc2)cc(OC)c1O [TRX-E-002-1, (+) cis-4-(para-hydroxyphenyl)-7,4′-dihydroxy-3′,5′-dimethoxy-8-methylisoflavan]",reduction of terminal tumour burden,[1]; [8],77%
same,tumour growth,[1]; [8],inhibited
same,efficacy compared with paclitaxel,[1]; paclitaxel 12 mg/kg twice weekly,more effective
same,terminal pancreatic tumour burden,[2],significantly reduced
same,time by which mean plasma levels were below the limit of quantification,[3]; 100 mg/kg i.p.,≤ 24 h
same,AUC(0-inf),"[3]; female rats, 100 mg/kg i.p.",29500 ng·h/mL
same,Tmax,"[3]; female rats, 100 mg/kg i.p.",0.25 h
same,AUC(0-inf),"[3]; male rats, 100 mg/kg i.p.",44700 ng·h/mL
same,Tmax,"[3]; male rats, 100 mg/kg i.p.",1 h
same,half-life,"[3]; female rats, 100 mg/kg i.p., read-out: T ½ (plasma elimination half-life) (converted)",~1.3 h
same,half-life,"[3]; male rats, 100 mg/kg i.p., read-out: plasma elimination half-life (converted)",~1.9 h
same,plasma unconjugated TRX-E-002-1 as share of total levels (parent + glucuronide),"[3]; female rats, up to 6 h after dosing",approximately 90%
same,accumulation with three times weekly dosing,[4]; Day 26 vs Day 1,no accumulation
same,NOAEL at 4 weeks,"[4]; both sexes, beagle, dog, in vivo, intraperitoneal, combined sexes",10 mg/kg
same,AUC(0-t),"[4]; both sexes, beagle, dog, plasma, intraperitoneal, combined sexes, 10 mg/kg, Day 26, read-out: mean plasma AUClast",2310 ng·h/mL
same,clear no-effect dose,"[4]; dog, in vivo",1 mg/kg
same,highest non-severely toxic dose (HNSTD),"[4]; dog, in vivo",10 mg/kg
same,NOAEL at 4 weeks,"[4]; female, beagle, dog, in vivo, intraperitoneal, females",30 mg/kg
same,NOAEL at 4 weeks,"[4]; male, beagle, dog, in vivo, intraperitoneal, males",10 mg/kg
same,number of revertant colonies,[5],no significant increases
same,number of revertant colonies,[6],no significant increases
same,mutant frequencies compared with control values,[7],did not show statistically significant differences
